The values below come from US9409903B2, “Benzyl substituted triazine derivatives and their therapeutical applications” (NantBioScience, Inc., priority 2009, dated 2016).

Format in all cases: biochemical
For assay [1], the target named is T1, Aurora-A(h) (Homo sapiens, UniProt O14965).
T1 construct: purchased Millipore (KinaseProfiler service); also Reaction Biology Corp. (Kinase Hotspot)
T1 sequence (O14965 1-403): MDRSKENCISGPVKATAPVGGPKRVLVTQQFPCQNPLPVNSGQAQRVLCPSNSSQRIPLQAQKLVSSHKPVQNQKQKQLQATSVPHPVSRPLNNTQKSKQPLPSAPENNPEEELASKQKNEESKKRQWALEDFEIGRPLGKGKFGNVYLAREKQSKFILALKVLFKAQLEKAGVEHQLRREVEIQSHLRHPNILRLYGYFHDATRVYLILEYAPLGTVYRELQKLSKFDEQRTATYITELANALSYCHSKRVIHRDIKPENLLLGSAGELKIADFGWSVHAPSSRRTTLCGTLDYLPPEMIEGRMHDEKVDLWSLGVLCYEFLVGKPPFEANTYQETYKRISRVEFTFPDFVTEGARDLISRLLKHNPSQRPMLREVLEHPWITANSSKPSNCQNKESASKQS
As to the kind of experiment: Aurora-A kinase inhibition assay (KinaseProfiler / Kinase Hotspot). The following applies: compound at 1 μM. The procedure: (§1) This example illustrated c-Src kinase, Aurora-A kinase, Flt3 kinase, Ret kinase and TrkA Kinase Assays of selected Compounds from this invention (referred to Daniele Fancelli et al, J. Med. Chem., 2006, 49 (24), pp 7247-7251). The KinaseProfiler™ Service Assay Protocols (Millipore) were used to test the kinase inhibiting activity of novel compounds from this invention. To do this, the buffer composition was as: 20 mM MOPS, 1 mM EDTA, 0.01% Brij-35, 5% Glycerol, 0.1% β-mercaptoethanol, 1 mg/mL BSA. Test compounds were initially dissolved in DMSO at the desired concentration, then serially diluted to the kinase assay buffer. In a final reaction volume of 25 μL, Aurora-A(h) (5-10 mU) is incubated with 8 mM MOPS pH 7.0, 0.2 mM EDTA, 200 μM LRRASLG (Kemptide), 10 mM MgAcetate and [γ^33P-ATP]. The reaction was initiated by the addition of the MgATP mix. After incubation for 40 minute at room temperature, the reaction was stopped by addition of 5 μL of a 3% phosphoric acid solution. 10 μL of the reaction was then spotted onto a P30 filtermat and washed three times for 5 minutes in 50 mM phosphoric acid and once in methanol prior to drying and scintillation counting. Wells containing substrate but no kinase and wells containing a phosphopeptide control were used to set 0% and 100% phosphorylation value, receptively.
(§2) Also Kinase Hotspot^SM kinase assay was used to test the compounds for IC50 or % inhibitions (Reaction Biology Corp.). Inhibitor IC50 values were determined by titration of compound at the optimal kinase concentration (Kinase EC50).

In assay [2] the target is T2, Flt3 kinase (Homo sapiens, UniProt P36888).
T2 construct: purchased Millipore (KinaseProfiler service); also Reaction Biology Corp. (Kinase Hotspot)
T2 sequence (P36888 27-993): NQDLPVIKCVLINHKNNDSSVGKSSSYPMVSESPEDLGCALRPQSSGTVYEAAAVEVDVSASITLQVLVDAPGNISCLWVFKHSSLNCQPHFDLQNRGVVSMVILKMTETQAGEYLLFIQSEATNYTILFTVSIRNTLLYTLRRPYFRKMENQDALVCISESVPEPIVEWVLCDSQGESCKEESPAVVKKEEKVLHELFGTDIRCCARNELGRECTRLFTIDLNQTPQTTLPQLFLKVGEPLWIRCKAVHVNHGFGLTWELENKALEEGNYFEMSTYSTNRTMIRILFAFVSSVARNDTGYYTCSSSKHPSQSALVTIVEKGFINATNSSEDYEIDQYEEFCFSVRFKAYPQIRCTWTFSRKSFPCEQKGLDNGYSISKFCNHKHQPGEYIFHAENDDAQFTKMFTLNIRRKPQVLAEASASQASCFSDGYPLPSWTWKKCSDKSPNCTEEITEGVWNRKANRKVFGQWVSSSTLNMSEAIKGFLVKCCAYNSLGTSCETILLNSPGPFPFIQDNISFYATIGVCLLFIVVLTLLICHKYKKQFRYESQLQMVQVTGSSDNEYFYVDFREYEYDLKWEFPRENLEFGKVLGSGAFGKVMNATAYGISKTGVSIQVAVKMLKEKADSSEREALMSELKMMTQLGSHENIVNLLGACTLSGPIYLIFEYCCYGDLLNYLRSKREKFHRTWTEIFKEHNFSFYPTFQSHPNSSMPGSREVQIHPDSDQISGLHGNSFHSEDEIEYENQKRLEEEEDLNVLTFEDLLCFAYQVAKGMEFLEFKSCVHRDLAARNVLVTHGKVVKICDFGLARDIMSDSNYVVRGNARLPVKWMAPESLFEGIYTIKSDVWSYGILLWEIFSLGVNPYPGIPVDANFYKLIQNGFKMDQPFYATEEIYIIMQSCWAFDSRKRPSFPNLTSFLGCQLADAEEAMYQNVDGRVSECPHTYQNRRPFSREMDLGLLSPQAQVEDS
As to the kind of experiment: Flt3 kinase inhibition assay (KinaseProfiler / Kinase Hotspot). Conditions: compound at 1 μM. The procedure:
as §1, §2

Assay [3] has as its target T3, c-Src kinase (Homo sapiens, UniProt P12931).
T3 construct: purchased Millipore (KinaseProfiler service); also Reaction Biology Corp. (Kinase Hotspot)
In words: c-Src kinase inhibition assay (KinaseProfiler / Kinase Hotspot). The following applies: compound at 1 μM; read-out: % Inhibition @1 μM cSrc. As to the method:
as §1, §2

Assay [4] concerns the target T4, Ret kinase (Homo sapiens, UniProt P07949).
T4 construct: purchased Millipore (KinaseProfiler service); also Reaction Biology Corp. (Kinase Hotspot)
As to the kind of experiment: Ret kinase inhibition assay (KinaseProfiler / Kinase Hotspot). Conditions: compound at 1 μM. The procedure: as §1, §2

The target in assay [5] is T5, TrkA Kinase (Homo sapiens, UniProt P04629).
T5 construct: purchased Millipore (KinaseProfiler service); also Reaction Biology Corp. (Kinase Hotspot)
T5 sequence (P04629 33-796): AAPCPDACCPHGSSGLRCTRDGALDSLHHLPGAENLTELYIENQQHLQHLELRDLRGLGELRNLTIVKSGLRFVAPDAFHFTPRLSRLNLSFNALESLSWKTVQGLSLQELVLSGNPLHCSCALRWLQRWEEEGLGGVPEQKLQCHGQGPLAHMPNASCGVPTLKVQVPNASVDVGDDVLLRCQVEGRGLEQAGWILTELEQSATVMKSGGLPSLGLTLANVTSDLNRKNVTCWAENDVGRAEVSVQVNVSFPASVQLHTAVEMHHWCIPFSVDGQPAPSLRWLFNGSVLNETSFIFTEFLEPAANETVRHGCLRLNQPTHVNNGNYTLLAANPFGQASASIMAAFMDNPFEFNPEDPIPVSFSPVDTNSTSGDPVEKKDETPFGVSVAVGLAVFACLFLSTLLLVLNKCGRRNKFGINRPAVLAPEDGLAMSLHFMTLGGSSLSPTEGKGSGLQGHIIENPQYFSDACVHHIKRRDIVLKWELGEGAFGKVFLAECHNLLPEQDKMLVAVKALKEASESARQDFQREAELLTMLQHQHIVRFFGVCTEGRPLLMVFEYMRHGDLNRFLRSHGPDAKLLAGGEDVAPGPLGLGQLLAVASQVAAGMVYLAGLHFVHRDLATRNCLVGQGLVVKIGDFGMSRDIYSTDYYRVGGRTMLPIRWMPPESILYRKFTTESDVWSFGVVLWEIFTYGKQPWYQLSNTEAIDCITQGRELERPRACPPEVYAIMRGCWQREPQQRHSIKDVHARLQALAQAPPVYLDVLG
In words: TrkA kinase inhibition assay (KinaseProfiler / Kinase Hotspot). Conditions: compound at 1 μM. As to the method: as §1, §2

Structures are written as SMILES.

T4 sequence (P07949 29-1114): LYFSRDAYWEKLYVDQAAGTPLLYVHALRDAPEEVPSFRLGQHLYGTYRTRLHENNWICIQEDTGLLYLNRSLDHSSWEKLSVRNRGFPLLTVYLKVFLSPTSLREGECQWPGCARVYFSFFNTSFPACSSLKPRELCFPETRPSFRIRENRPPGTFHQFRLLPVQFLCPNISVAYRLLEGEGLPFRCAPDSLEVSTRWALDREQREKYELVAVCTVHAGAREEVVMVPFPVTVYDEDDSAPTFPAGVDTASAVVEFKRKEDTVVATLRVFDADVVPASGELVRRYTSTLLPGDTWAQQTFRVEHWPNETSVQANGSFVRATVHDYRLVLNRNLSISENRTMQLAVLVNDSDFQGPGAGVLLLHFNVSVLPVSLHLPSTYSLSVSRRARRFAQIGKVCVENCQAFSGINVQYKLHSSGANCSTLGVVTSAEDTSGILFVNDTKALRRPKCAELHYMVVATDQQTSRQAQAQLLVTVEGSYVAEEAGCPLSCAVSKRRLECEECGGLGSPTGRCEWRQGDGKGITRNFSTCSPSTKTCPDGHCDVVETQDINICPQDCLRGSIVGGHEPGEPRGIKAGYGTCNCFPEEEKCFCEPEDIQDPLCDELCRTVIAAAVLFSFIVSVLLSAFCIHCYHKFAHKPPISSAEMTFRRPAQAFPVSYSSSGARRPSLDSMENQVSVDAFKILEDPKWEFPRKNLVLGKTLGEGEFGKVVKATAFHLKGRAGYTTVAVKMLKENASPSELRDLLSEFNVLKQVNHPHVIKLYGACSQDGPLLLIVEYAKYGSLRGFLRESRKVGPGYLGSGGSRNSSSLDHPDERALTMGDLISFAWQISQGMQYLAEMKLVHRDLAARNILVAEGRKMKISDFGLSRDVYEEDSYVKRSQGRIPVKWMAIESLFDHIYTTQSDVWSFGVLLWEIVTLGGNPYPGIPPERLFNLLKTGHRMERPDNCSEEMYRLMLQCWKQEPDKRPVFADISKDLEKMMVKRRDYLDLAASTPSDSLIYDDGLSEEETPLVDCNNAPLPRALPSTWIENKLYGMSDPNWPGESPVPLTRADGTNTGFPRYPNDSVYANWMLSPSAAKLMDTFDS
T3 sequence (P12931 whole entry): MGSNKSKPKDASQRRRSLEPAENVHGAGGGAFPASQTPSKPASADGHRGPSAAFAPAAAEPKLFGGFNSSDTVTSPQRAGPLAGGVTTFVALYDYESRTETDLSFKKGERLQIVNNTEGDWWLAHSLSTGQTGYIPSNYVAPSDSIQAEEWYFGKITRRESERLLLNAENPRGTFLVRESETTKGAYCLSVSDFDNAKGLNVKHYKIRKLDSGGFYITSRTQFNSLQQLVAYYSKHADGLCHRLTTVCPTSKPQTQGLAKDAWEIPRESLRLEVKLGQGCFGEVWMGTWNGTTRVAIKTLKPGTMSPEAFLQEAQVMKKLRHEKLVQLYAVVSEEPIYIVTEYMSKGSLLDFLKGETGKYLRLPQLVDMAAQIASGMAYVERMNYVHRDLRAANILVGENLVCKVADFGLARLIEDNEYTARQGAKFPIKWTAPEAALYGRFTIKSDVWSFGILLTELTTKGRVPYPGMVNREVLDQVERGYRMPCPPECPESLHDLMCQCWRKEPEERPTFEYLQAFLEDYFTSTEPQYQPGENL

One may read the inhibition as the relative decrease from the control value, in per cent. On to `CN1CCN(c2nc(Nc3cc(-c4ccco4)[nH]n3)nc(N(C)Cc3ccc(F)cc3)n2)CC1` [Example 10], for which the inhibition at 1 µM in assay [1] is 50 to 90%; in assay [2] it was more than 90%; in assay [3] it was 50 to 90%; in assay [4], less than 50%; in assay [5] it was more than 90%.
Regarding `CN1CCN(c2nc(NCc3ccccc3)nc(Nc3ncc(-c4ccccc4)s3)n2)CC1` [Example 19], the inhibition at 1 µM in assay [1], in assay [2], in assay [3], in assay [4] and in assay [5] was less than 50% throughout.
With `CC(C)c1cnc(Nc2nc(N[C@H](C)c3ccc(F)cc3)nc(N3CCN(C)CC3)n2)s1` [Example 4], the inhibition at 1 µM was less than 50% in assay [1]; more than 90% in assay [2]; 50 to 90% in assay [3]; less than 50% in assay [4]; 50 to 90% in assay [5].
As to `CN1CCN(c2nc(Nc3cc(-c4ccco4)[nH]n3)nc(NC(C)(C)c3ccccc3)n2)CC1` [Example 23], the inhibition at 1 µM in assay [1] is less than 50%; in assay [2], more than 90%; in assay [3], less than 50%; in assay [4] it was more than 90%; in assay [5] it was more than 90%.
In the case of `Cc1cnc(Nc2nc(NCc3ccc4c(c3)OCO4)nc(N3CCN(C)CC3)n2)s1` [Example 6], the inhibition at 1 µM is 50 to 90% in assay [1]; more than 90% in assay [2]; 50 to 90% in assay [3]; 50 to 90% in assay [4]; more than 90% in assay [5].
For the molecule `C[C@@H](Nc1nc(Nc2cc(-c3ccco3)[nH]n2)nc(N2CCN(C)CC2)n1)c1ccc(F)cc1` [Example 18], the inhibition at 1 µM in assay [1] is less than 50%; in assay [2], more than 90%; in assay [3], more than 90%; in assay [4] it was more than 90%; in assay [5], more than 90%.
Take `Cc1cnc(Nc2nc(NCc3ccc(F)cc3)nc(N3CCN(C)CC3)n2)s1` [Example 8]: the inhibition at 1 µM in assay [1] is 50 to 90%; in assay [2] it was more than 90%; in assay [3], 50 to 90%; in assay [4], 50 to 90%; in assay [5], more than 90%.
For the molecule `CN1CCN(c2nc(NCc3ccccc3)nc(Nc3cc(-c4ccco4)[nH]n3)n2)CC1` [Example 12], the inhibition at 1 µM in assay [1] was less than 50%; in assay [2], more than 90%; in assay [3], 50 to 90%; in assay [4] it was less than 50%; in assay [5], more than 90%.
Turning to `Cc1cnc(Nc2nc(NCc3ccccc3)nc(N3CCN(C)CC3)n2)s1` [Example 7], the inhibition at 1 µM in assay [1] was 50 to 90%; in assay [2], more than 90%; in assay [3], 50 to 90%; in assay [4], more than 90%; in assay [5] it was more than 90%.
Turning to `CC(C)c1cnc(Nc2nc(NC(C)c3ccc(F)cc3)nc(N3CCN(C)CC3)n2)s1` (stereo not shown) [Example 2], the inhibition at 1 µM in assay [1] is less than 50%; in assay [2] it was more than 90%; in assay [3], more than 90%; in assay [4], less than 50%; in assay [5] it was more than 90%.
As for `CN1CCN(c2nc(Nc3cc(-c4ccco4)[nH]n3)nc(SCc3ccccc3)n2)CC1` [Example 15], the inhibition at 1 µM in assay [1] is less than 50%; in assay [2], more than 90%; in assay [3], less than 50%; in assay [4], less than 50%; in assay [5], more than 90%.
In the case of `CN1CCN(c2nc(Nc3cc(-c4ccco4)[nH]n3)nc(SCc3ccc(F)cc3)n2)CC1` [Example 11], the inhibition at 1 µM is 50 to 90% in assay [1]; more than 90% in assay [2]; 50 to 90% in assay [3]; less than 50% in assay [4]; more than 90% in assay [5].
Regarding `CN1CCN(c2nc(Nc3cc(-c4ccco4)[nH]n3)nc(OCc3ccccc3)n2)CC1` [Example 14], the inhibition at 1 µM in assay [1] is less than 50%; in assay [2], more than 90%; in assay [3], less than 50%; in assay [4], less than 50%; in assay [5] it was more than 90%.
Consider `CC(C)c1cnc(Nc2nc(N[C@@H](C)c3ccc(F)cc3)nc(N3CCN(C)CC3)n2)s1` [Example 3], for which the inhibition at 1 µM in assay [1] is 50 to 90%; in assay [2], more than 90%; in assay [3] it was more than 90%; in assay [4], 50 to 90%; in assay [5], more than 90%.
For the molecule `C[C@@H](Nc1nc(Nc2cc(-c3ccco3)[nH]n2)nc(N2CCN(C)CC2)n1)c1ccc(F)cc1` [Example 22], the “% Inhibition @1 μM Flt3” value in assay [2] was more than 90%. The “% Inhibition @1 μM Ret” value in assay [4] was more than 90%. For the same molecule, the “% Inhibition @1 μM TrkA” value in assay [5] is reported as more than 90%.
On to `CC(Nc1nc(Nc2cc(C3CC3)[nH]n2)nc(N2CCN(C)CC2)n1)c1ccc(F)cc1` (stereo not shown) [Example 20], for which the inhibition at 1 µM was 50 to 90% in assay [1]; 50 to 90% in assay [2]; 50 to 90% in assay [3]; less than 50% in assay [4]; 50 to 90% in assay [5].
As to `C[C@H](Nc1nc(Nc2cc(-c3ccco3)[nH]n2)nc(N2CCN(C)CC2)n1)c1ccc(F)cc1` [Example 21], the inhibition at 1 µM is less than 50% in assay [1]; more than 90% in assay [2]; less than 50% in assay [3]; more than 90% in assay [4]; more than 90% in assay [5].
As for `CN1CCN(c2nc(NCc3ccc(F)cc3)nc(Nc3cc(-c4ccco4)[nH]n3)n2)CC1` [Example 9], the inhibition at 1 µM in assay [1] is less than 50%; in assay [2] it was more than 90%; in assay [3] it was 50 to 90%; in assay [4] it was less than 50%; in assay [5], more than 90%.
